In the supplement of paper PMC8671470:

How the values were obtained:
Details in all cases: 72 h
[1] = system: myeloid leukemia patient primary cells Pat.10; test: cell viability (% survival relative to DMSO control); higher = less cytotoxic
In short: (§1)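 Mononuclear cells from patients with AML or CML were thawed, purified on Ficoll and placed in RPMI 1640 with 10% FBS at 10,000 cells/well on 384-well plates. The plates came pre-printed with 70 compounds at five tenfold concentrations spanning 1–10,000 nM, in duplicate, and cells were exposed for 72 h. CellTiter-Glo gave viability, scaled between DMSO wells and wells with 10 μM proteasome inhibitor. Where reported, area under the curve was obtained from log-logistic fits with four parameters using the drc and PharmacoGx R packages.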

[2] = system: myeloid leukemia patient primary cells Pat.11; test: as above
In short: as §1

[3] = system: myeloid leukemia patient primary cells Pat.12; test: as above
In short: as §1

[4] = system: myeloid leukemia patient primary cells Pat.13; test: as above
In short: as §1

[5] = system: myeloid leukemia patient primary cells Pat.14; test: as above
In short: as §1

[6] = system: myeloid leukemia patient primary cells Pat.15; test: as above
In short: as §1

[7] = system: myeloid leukemia patient primary cells Pat.1; test: as above
In short: as §1

[8] = system: myeloid leukemia patient primary cells Pat.2; test: as above
In short: as §1

[9] = system: myeloid leukemia patient primary cells Pat.3; test: as above
In short: as §1

[10] = system: myeloid leukemia patient primary cells Pat.4; test: as above
In short: as §1

[11] = system: myeloid leukemia patient primary cells Pat.5; test: as above
In short: as §1

[12] = system: myeloid leukemia patient primary cells Pat.6; test: as above
In short: as §1

[13] = system: myeloid leukemia patient primary cells Pat.7; test: as above
In short: as §1

[14] = system: myeloid leukemia patient primary cells Pat.8; test: as above
In short: as §1

[15] = system: myeloid leukemia patient primary cells Pat.9; test: as above
In short: as §1

KU-812 = test: cell viability (% survival relative to DMSO control, bortezomib = 0%); higher = less cytotoxic
In short: (§2)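 Reported values are percent survival from duplicate wells, averaged. Fifteen myeloid leukaemia cell lines were treated in 384-well plates with compounds at 1, 10, 100, 1000 or 10000 nM for 72 h at 37 °C in 5% CO2. Signals from CellTiter-Glo luminescence were scaled with vehicle as 100% and a 10 µM positive control as 0%.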

Mono-Mac-6 = test: as above
In short: as §2

NOMO-1 = test: as above
In short: as §2

THP-1 = test: as above
In short: as §2

## Fc1ccc(CNc2ncnc3ccc(F)cc23)cc1 [Spautin 1]
[1]; 1 nM
  cell viability: 73%
[1]; 10 nM
  cell viability: 15.3%
[1]; 100 nM
  cell viability: 96.8%
[1]; 1000 nM
  cell viability: 78.5%
[1]; 10000 nM
  cell viability: 47.9%
[2]; 1 nM
  cell viability: > 100%
[2]; 10 nM
  cell viability: 96.2%
[2]; 100 nM
  cell viability: 97.9%
[2]; 1000 nM
  cell viability: 92.2%
[2]; 10000 nM
  cell viability: 84.7%
[3]; 1 nM
  cell viability: 97.3%
[3]; 10 nM
  cell viability: 87.3%
[3]; 100 nM
  cell viability: > 100%
[3]; 1000 nM
  cell viability: > 100%
[3]; 10000 nM
  cell viability: 72.6%
[4]; 1 nM
  cell viability: 97.7%
[4]; 10 nM
  cell viability: 78.3%
[4]; 100 nM
  cell viability: 89.4%
[4]; 1000 nM
  cell viability: 75.7%
[4]; 10000 nM
  cell viability: 34.9%
[5]; 1 nM
  cell viability: 87.2%
[5]; 10 nM
  cell viability: 56.5%
[5]; 100 nM
  cell viability: 90.5%
[5]; 1000 nM
  cell viability: 60.7%
[5]; 10000 nM
  cell viability: 31.2%
[6]; 1 nM
  cell viability: 96.5%
[6]; 10 nM
  cell viability: 90.9%
[6]; 100 nM
  cell viability: 91.5%
[6]; 1000 nM
  cell viability: 79.4%
[6]; 10000 nM
  cell viability: 25.9%
[7]; 1 nM
  cell viability: 97%
[7]; 10 nM
  cell viability: 84.4%
[7]; 100 nM
  cell viability: 88.1%
[7]; 1000 nM
  cell viability: 81.7%
[7]; 10000 nM
  cell viability: 46.4%
[8]; 1 nM
  cell viability: 97.1%
[8]; 10 nM
  cell viability: 88.7%
[8]; 100 nM
  cell viability: > 100%
[8]; 1000 nM
  cell viability: 87.3%
[8]; 10000 nM
  cell viability: 77.2%
[9]; 1 nM
  cell viability: 63.4%
[9]; 10 nM
  cell viability: 49.7%
[9]; 100 nM
  cell viability: > 100%
[9]; 1000 nM
  cell viability: 33.1%
[9]; 10000 nM
  cell viability: 69.9%
[10]; 1 nM
  cell viability: 77.2%
[10]; 10 nM
  cell viability: 87.3%
[10]; 100 nM
  cell viability: 96.2%
[10]; 1000 nM
  cell viability: 70.4%
[10]; 10000 nM
  cell viability: 50.5%
[11]; 1 nM
  cell viability: 84.9%
[11]; 10 nM
  cell viability: 17%
[11]; 100 nM
  cell viability: 78.9%
[11]; 1000 nM
  cell viability: 25.9%
[11]; 10000 nM
  cell viability: 2.01%
[12]; 1 nM
  cell viability: > 100%
[12]; 10 nM
  cell viability: 86.8%
[12]; 100 nM
  cell viability: 96.6%
[12]; 1000 nM
  cell viability: 87.9%
[12]; 10000 nM
  cell viability: 42.2%
[13]; 1 nM
  cell viability: 74.6%
[13]; 10 nM
  cell viability: 70.9%
[13]; 100 nM
  cell viability: > 100%
[13]; 1000 nM
  cell viability: 58.8%
[13]; 10000 nM
  cell viability: 30.3%
[14]; 1 nM
  cell viability: 93.5%
[14]; 10 nM
  cell viability: 82.1%
[14]; 100 nM
  cell viability: 85.6%
[14]; 1000 nM
  cell viability: 80.7%
[14]; 10000 nM
  cell viability: 51.1%
[15]; 1 nM
  cell viability: 67.2%
[15]; 10 nM
  cell viability: 7.92%
[15]; 100 nM
  cell viability: 65.9%
[15]; 1000 nM
  cell viability: 12.7%
[15]; 10000 nM
  cell viability: 5.45%
KU-812; 1 nM
  cell viability: 96.8%
KU-812; 10 nM
  cell viability: 96.3%
KU-812; 100 nM
  cell viability: 94.5%
KU-812; 1000 nM
  cell viability: 62.3%
KU-812; 10000 nM
  cell viability: 12.6%
Mono-Mac-6; 1 nM
  cell viability: 109%
Mono-Mac-6; 10 nM
  cell viability: 96.1%
Mono-Mac-6; 100 nM
  cell viability: 119%
Mono-Mac-6; 1000 nM
  cell viability: 106%
Mono-Mac-6; 10000 nM
  cell viability: 59%
NOMO-1; 1 nM
  cell viability: 103%
NOMO-1; 10 nM
  cell viability: 102%
NOMO-1; 100 nM
  cell viability: 110%
NOMO-1; 1000 nM
  cell viability: 97.3%
NOMO-1; 10000 nM
  cell viability: 77.1%
THP-1; 1 nM
  cell viability: 95.5%
THP-1; 10 nM
  cell viability: 103%
THP-1; 100 nM
  cell viability: 103%
THP-1; 1000 nM
  cell viability: 106%
THP-1; 10000 nM
  cell viability: 79.1%
